This is an account of results in patent US10375962B2, “Heterocycle derivatives as pesticides” (BAYER CROPSCIENCE AKTIENGESELLSCHAFT, priority 2016, dated 2019).

The test system of data set [1] is southern root-knot nematode (Meloidogyne incognita). As to the kind of experiment: Meloidogyne incognita test. The format is in vivo. The following applies: application rate 20 ppm; lettuce; after 14 days. The procedure:
Solvent: 125.0 parts by weight of acetone
To produce a suitable preparation of active compound, 1 part by weight of active compound is mixed with the stated amount of solvent and the concentrate is diluted with water to the desired concentration.
Vessels are filled with sand, active compound solution, an […] suspension of the southern root-knot nematode (Meloidogyne incognita) and lettuce seeds. The lettuce seeds germinate and the plants develop. The galls develop on the roots.
After 14 days, the nematicidal efficacy in % is determined by the formation of galls. 100% means that no galls were found; 0% means that the number of galls on the treated plants corresponds to the untreated control.

In data set [2] the test system is larvae of the mustard beetle (Phaedon cochleariae). As to the kind of experiment: Phaedon cochleariae - spray test. The following applies: after 7 days. Format: in vivo. The protocol:
Solvent: 78.0 parts by weight of acetone • • 1.5 parts by weight of dimethylformamide
(§1) Emulsifier: alkylaryl polyglycol ether
(§2) To produce a suitable active compound formulation, 1 part by weight of active compound is dissolved with the stated parts by weight of solvent and made up with water containing an emulsifier concentration of 1000 ppm until the desired concentration is attained. To produce further test concentrations, the formulation is diluted with emulsifier-containing water.
Discs of Chinese cabbage leaves (Brassica pekinensis) are sprayed with an active compound formulation of the desired concentration and, after drying, populated with larvae of the mustard beetle (Phaedon cochleariae).
After 7 days, the efficacy in % is determined. 100% means that all the beetle larvae have been killed and 0% means that none of the beetle larvae have been killed.

A short description of data set [3]: log P by HPLC on a reversed-phase column (C 18), EEC Directive 79/831 Annex V.A8. The format is physicochemical. The source says:
Called log P (HCOOH) in the table.
Called log P (neutral) in the table.

For data set [4], the system named is caterpillars of the armyworm (Spodoptera frugiperda). Kind of data set: Spodoptera frugiperda - spray test. The format is in vivo. The following applies: maize leaf discs, after 7 days. The protocol: Solvent: 78.0 parts by weight of acetone • • 1.5 parts by weight of dimethylformamide Emulsifier: alkylaryl polyglycol ether […] To produce further test concentrations, the formulation is diluted with emulsifier-containing water. Leaf discs of maize (Zea mays) are sprayed with an active compound preparation of the desired concentration and, after drying, populated with caterpillars of the armyworm (Spodoptera frugiperda).

Data set [5] has as its system adult houseflies (Musca domestica). As to the kind of experiment: Musca domestica test. The following applies: application rate 100 ppm; after 2 days. The format is in vivo. The protocol:
(§3) Solvent: dimethyl sulphoxide
(§4) To produce a suitable active compound formulation, 10 mg of active compound are mixed with 0.5 ml of dimethyl sulphoxide, and the concentrate is diluted with water to the desired concentration.
Vessels containing a sponge treated with sugar solution and the active compound formulation of the desired concentration are populated with 10 adult houseflies (Musca domestica).
After 2 days, the kill in % is determined. 100% means that all of the flies have been killed; 0% means that none of the flies have been killed.

Data set [6] deals with L1 larvae of the Australian sheep blowfly (Lucilia cuprina). Kind of data set: Lucilia cuprina test. The format is in vivo. The following applies: application rate 100 ppm; after 2 days. The protocol:
as §3, §4
About 20 L1 larvae of the Australian sheep blowfly (Lucilia cuprina) are transferred into a test vessel containing minced horsemeat and the active compound formulation of the desired concentration.
After 2 days, the kill in % is determined. 100% means that all the larvae have been killed; 0% means that no larvae have been killed.

The subject of data set [7] is engorged adult female cattle ticks (Boophilus microplus). As to the kind of experiment: Boophilus microplus - injection test. The format is in vivo. The following applies: application rate 20 μg/animal, after 7 days. The procedure: as §3
To produce a suitable active compound formulation, 10 mg of active compound are mixed with 0.5 ml of solvent and the concentrate is diluted with solvent to the desired concentration.
1 μl of the active compound solution is injected into the abdomen of 5 engorged adult female cattle ticks (Boophilus microplus). The animals are transferred into dishes and kept in a climate-controlled room.
Efficacy is assessed after 7 days by laying of fertile eggs. Eggs which are not visibly fertile are stored in a climate-controlled cabinet until the larvae hatch after about 42 days. An efficacy of 100% means that none of the ticks has laid any fertile eggs; 0% means that all the eggs are fertile.

Data set [8] deals with unfed adult cat fleas (Ctenocephalides felis). Kind of data set: Ctenocephalides felis - oral test. The format is in vivo. The following applies: application rate 100 ppm in citrated cattle blood; after 2 days. The protocol: as §3
For the purpose of production of a suitable active compound formulation, 10 mg of active compound are mixed with 0.5 ml of dimethyl sulphoxide. Dilution with citrated cattle blood gives the desired concentration.
About 20 unfed adult cat fleas (Ctenocephalides felis) are placed into a chamber which is closed at the top and bottom with gauze. A metal cylinder whose bottom end is closed with parafilm is placed onto the chamber. The cylinder contains the blood/active compound formulation, which can be imbibed by the fleas through the parafilm membrane.
After 2 days, the kill in % is determined. 100% means that all of the fleas have been killed; 0% means that none of the fleas have been killed.

The test system of data set [9] is adult cat fleas (Ctenocephalides felis). Kind of data set: Ctenocephalides felis - in vitro contact tests with adult cat fleas. Particulars: application rate 5 μg/cm^2; after 48 h. The format is in vivo. The procedure: For the coating of the test tubes, 9 mg of active compound are first dissolved in 1 ml of acetone p.a. and then diluted to the desired concentration with acetone p.a. 250 μl of the solution are distributed homogeneously on the inner walls and the base of a 25 ml test tube by turning and rocking on an orbital shaker (rocking rotation at 30 rpm for 2 h). With 900 ppm of active compound solution and internal surface area 44.7 cm^2, given homogeneous distribution, an area-based dose of 5 μg/cm^2 is achieved.
After the solvent has evaporated off, the tubes are populated with 5-10 adult cat fleas (Ctenocephalides felis), sealed with a perforated plastic lid and incubated in a horizontal position at room temperature and ambient humidity. After 48 h, efficacy is determined. To this end, the test tubes are stood upright and the fleas are knocked to the base of the tube. Fleas which remain motionless at the base or move in an uncoordinated manner are considered to be dead or moribund.
100% efficacy means that all the fleas were dead or moribund. 0% efficacy means that no fleas were harmed.

The subject of data set [10] is green peach aphid (Myzus persicae). As to the kind of experiment: Myzus persicae - spray test (Chinese cabbage leaf discs). The format is in vivo. Particulars: after 5 days. The procedure: Solvent: 78 parts by weight of acetone • • 1.5 parts by weight of dimethylformamide Emulsifier: alkylaryl polyglycol ether
as §2
Discs of Chinese cabbage leaves (Brassica pekinensis) infested by all stages of the green peach aphid (Myzus persicae) are sprayed with an active compound formulation of the desired concentration.
After 5 days, the efficacy in % is determined. 100% means that all the aphids have been killed and 0% means that none of the aphids have been killed.

The test system is the same in data set [11]. As to the kind of experiment: Myzus persicae spray test (bell pepper plants). The following applies: application rate 20 ppm, after 6 days. The format is in vivo. The procedure: Solvent: 14 parts by weight of dimethylformamide
as §1
To produce a suitable active compound formulation, 1 part by weight of active compound is dissolved with the stated parts by weight of solvent and made up with water containing an emulsifier concentration of 1000 ppm until the desired concentration is attained. To produce further test concentrations, the formulation is diluted with emulsifier-containing water. If the addition of ammonium salts or/and penetrants is required, these are each added in a concentration of 1000 ppm to the formulation solution.
Bell pepper plants (Capsicum annuum) severely infested with the green peach aphid (Myzus persicae) are treated by spraying with the active compound formulation in the desired concentration.
After 6 days, the kill in % is determined. 100% means that all of the aphids have been killed; 0% means that none of the aphids have been killed.

Where [12] appears, read: acidic range, pH 2.7, 0.1% aqueous formic acid/acetonitrile, 55° C.
[13] abbreviates: neutral range, pH 7.8, 0.001 molar aqueous ammonium hydrogencarbonate/acetonitrile, 55° C.

Turning to `CCS(=O)(=O)c1ccc(-n2ccc3cc(Cl)cnc32)nc1-c1nc2cc(C(F)(F)F)ncc2n1C` [Example I-27], in [1], the “nematicidal efficacy (formation of galls)” value (“nematicidal efficacy” below) stood at 100%. Further, the efficacy in data set [2] (application rate 100 g/ha), in [2] (application rate 500 g/ha), in [4] (application rate 100 g/ha) and in data set [4] (application rate 500 g/ha) was 100% each time. For the same compound, in [3] (pH 2.7), the “LOGP_HCOOH (log P (HCOOH))” value was found to be 4.41. In data set [3] (pH 7.8), the “LOGP_NEUTRAL (log P (neutral))” value amounted to 4.39.
Regarding `CCS(=O)(=O)c1ccc(-n2ncc3c(Cl)cccc32)nc1-c1nc2cc(C(F)(F)F)ncc2n1C` [Example I-10], the “efficacy (kill)” value in [5] and in [6] was 100% each time. Also, the efficacy in [2] (application rate 100 g/ha), in data set [2] (application rate 500 g/ha), in [4] (application rate 100 g/ha) and in data set [4] (application rate 500 g/ha) was 100% each time. Also, in data set [3] (setting [12]), the “LOGP_HCOOH (log P (HCOOH))” value is reported as 4.27. In addition, the “LOGP_NEUTRAL (log P (neutral))” value in data set [3] (setting [13]) was determined as 4.24. Besides, the “efficacy (laying of fertile eggs)” value in data set [7] was 80%.
As to `CCS(=O)(=O)c1ccc(-n2ccc3ncc(Cl)cc32)nc1-c1nc2cc(C(F)(F)F)ncc2n1C` [Example I-28], the “nematicidal efficacy” value in [1] was found to be 90%. The efficacy in data set [2] (application rate 100 g/ha), in data set [2] (application rate 500 g/ha) and in [4] (application rate 500 g/ha) was 100% throughout. For the same compound, the “efficacy (kill)” value came out at 80% in data set [8] and 100% in [6]. Also, the “LOGP_HCOOH (log P (HCOOH))” value in data set [3] (pH 2.7) is recorded as 3.13. In addition, the “LOGP_NEUTRAL (log P (neutral))” value in data set [3] (pH 7.8) was found to be 3.05.
In turn, `CCS(=O)(=O)c1ccc(-n2ncc3cnccc32)nc1-c1nc2cc(C(F)(F)F)ncc2n1C` [Example I-11] came in with an efficacy in [2] (application rate 500 g/ha) of 83%. The “LOGP_HCOOH (log P (HCOOH))” value in [3] (setting [12]) came to 1.75. The “LOGP_NEUTRAL (log P (neutral))” value in [3] (setting [13]) was 2.47. Moreover, the “efficacy (laying of fertile eggs)” value in data set [7] is 90%.
With `CCS(=O)(=O)c1ccc(-n2nc3cccc(Br)n3c2=O)nc1-c1nc2cc(C(F)(F)F)ncc2n1C` [Example I-36], the “nematicidal efficacy” value in [1] was 100%. Moreover, in data set [3] (pH 2.7), the “LOGP_HCOOH (log P (HCOOH))” value was determined as 2.70. The “LOGP_NEUTRAL (log P (neutral))” value in [3] (pH 7.8) is 2.72.
On to `CCS(=O)(=O)c1ccc(-n2ncc3cccnc32)nc1-c1nc2cc(C(F)(F)F)ncc2n1C` [Example I-6], for which the “efficacy (kill)” value worked out at 100% in data set [5], 90% in data set [8] and 100% in data set [6]. For the same compound, the efficacy in data set [2] (application rate 100 g/ha), in data set [2] (application rate 500 g/ha), in data set [10] (application rate 100 g/ha), in data set [10] (application rate 500 g/ha), in [4] (application rate 100 g/ha) and in [4] (application rate 500 g/ha) was 100% each time. Also, in data set [9], the “efficacy (fleas dead or moribund)” value was 100%. In [3] (pH 2.7), the “LOGP_HCOOH (log P (HCOOH))” value worked out at 2.67. For the same compound, the “LOGP_NEUTRAL (log P (neutral))” value in data set [3] (pH 7.8) stood at 2.63. In addition, in data set [7], the “efficacy (laying of fertile eggs)” value is 90%.
Take `CCS(=O)(=O)c1ccc(-n2nc3c(Cl)cc(C(F)(F)F)cn3c2=O)nc1-c1nc2cc(C(F)(F)F)ncc2n1C` [Example I-32]: the “efficacy (kill)” value in data set [5], in data set [8] and in [6] was 100% in each case. The efficacy in data set [2] (application rate 100 g/ha) is on record as 100%; in data set [2] (application rate 500 g/ha), 100%; in [4] (application rate 100 g/ha), 83%; in data set [4] (application rate 500 g/ha) it was 100%. In data set [3] (pH 7.8), the “LOGP_NEUTRAL (log P (neutral))” value was 3.39.
Take `CCS(=O)(=O)c1ccc(-n2cc3cccc(Cl)c3n2)nc1-c1nc2cc(C(F)(F)F)ncc2n1C` [Example I-5]: the efficacy in [2] (application rate 500 g/ha) was found to be 100%; in data set [10] (application rate 100 g/ha), 70%; in data set [10] (application rate 500 g/ha) it was 90%; in data set [4] (application rate 100 g/ha), 100%; in [4] (application rate 500 g/ha), 100%. Besides, the “LOGP_HCOOH (log P (HCOOH))” value in data set [3] (setting [12]) was 3.94. Besides, the “LOGP_NEUTRAL (log P (neutral))” value in [3] (setting [13]) was found to be 3.92. Moreover, the “efficacy (kill)” value in data set [6] came out at 100%. Moreover, the “efficacy (laying of fertile eggs)” value in data set [7] came to 80%.
For `CCS(=O)(=O)c1ccc(N2Cc3ccc(Cl)cc3C2)nc1-c1nc2cc(C(F)(F)F)ncc2n1C` [Example I-18], the “efficacy (kill)” value came to 80% in data set [5], 100% in [8], 98% in data set [11] and 100% in data set [6]. The efficacy in [2] (application rate 100 g/ha), in data set [2] (application rate 500 g/ha), in [4] (application rate 100 g/ha) and in [4] (application rate 500 g/ha) was 100% in each case. The “efficacy (fleas dead or moribund)” value in [9] turned out to be 100%. Also, the “LOGP_HCOOH (log P (HCOOH))” value in data set [3] (pH 2.7) amounted to 4.03. The “LOGP_NEUTRAL (log P (neutral))” value in data set [3] (pH 7.8) is listed as 3.99.
